Values quoted from earlier work as cited in patent publication US9155756B2, “Method for the prevention and treatment of sepsis” (Universiteit Maastricht, priority 2011, dated 2015).

Assays:
[1] = system: patients with severe sepsis
[2] = system: patients with septic shock; details: low dose for 5-7 days

Molecule	Number needed to treat (NNT) for reduced mortality ([1]; patients with multi-organ failure, large randomized clinical trials)	Mortality ([1]; severe sepsis, decreased from about 31%)	Clinical outcome [2]
drotrecogin alfa	16	about 25%	
C[C@]12CCC(=O)C=C1CC[C@@H]1[C@@H]2[C@@H](O)C[C@@]2(C)[C@H]1CC[C@]2(O)C(=O)CO [hydrocortisone]			improved outcomes
